Data set [1] concerns human cells. Conditions: in vitro, HLA-A*2402, Non-patent Document 12; cited from earlier work.
In data set [2] the test system is B-LCL cells pulsed with the same WT1 peptide (BLCL-Ps).
Procedure: Peripheral blood mononuclear cells (PBMCs) were separated by Ficoll-Hypaque gradient density centrifugation method from peripheral blood that had been collected from an HLA-A*3303-positive healthy donor (HLA-A*3303/0207). The PBMCs were then seeded to a 24-well cell culture plate at the density of about 1×10^7 in RPMI 1640 medium containing 10% FCS, and a culture supernatant of B95-8 cells (cells producing EB virus) were added. They were cultured at 37° C. with 5% CO2 for about 1 month. B-LCL cells transformed with EB virus, which are B-cell tumor cells, were obtained. […] B-LCL cells were pulsed by incubating them with 20 μg/ml of WT1337, WT1364, WT1367 or WT1409 for 2 hours, and irradiated with 80 Gy of radiation. The resulting B-LCL cells (hereinafter referred to as B-LCL cells pulsed with a WT1 peptide) were used as antigen-presenting cells for the following experiments.
(§1) 3×10^6 of PBMCs (HLA-A*3303/1101) were cultured in a 24-well cell culture plate in complete medium (450 RPMI, 45% AMI-V medium and 10% human AB serum) containing 20 μg/ml of WT1337, WT1364, WT1367 or WT1409 at 37° C. with 5% CO2 for 1 week to obtain responding cells. 2×10^6 of the resulting responding cells were cocultured with 1×10^6 of the B-LCL cells pulsed with the same WT1 peptide in complete medium for 1 week (first stimulation). The PBMCs were cocultured with the B-LCL cells pulsed with the WT1 peptide three more times (second to fourth stimulations) under the conditions under which 20 IU/ml (final concentration) of IL-2 was added as follows: second stimulation: two times every other day from 3 days after the initiation of stimulation; third and fourth stimulations: three times at intervals of one day from the day after the initiation of stimulation. The resulting cells were concentrated using Negative Selection Columns Gravity Feed Kit (StemSp) so that the ratio of CD8-positive T cells became about 800, and cocultured with the B-LCL cells pulsed with the WT1 peptide (fifth stimulation). […]
(§2) The cytotoxic activity of CTLs was measured using ^51Cr release assay. […] The amounts of ^51Cr released into the supernatants were measured using a liquid scintillation counter. The cytotoxic activity (%) was determined using the following formula: (^51Cr release in supernatant of sample−Spontaneous ^51Cr release)/(Maximum ^51Cr release−Spontaneous ^51Cr release)×100 wherein Spontaneous ^51Cr release is ^51Cr release observed when the target cells into which ^51Cr had been incorporated were cultured alone under the same condition, and Maximum ^51Cr release is ^51Cr release observed when the target cells into which ^51Cr had been incorporated were completely lysed using 1% Triton X-100.
The subject of data set [3] is TF-1 cells.
Procedure: as §1, §2
The cytotoxic activity of CTLs induced with WT1364, WT1367 or WT1409 against TF-1 cells that are tumor cells expressing a WT1 gene (HLA-A*3303-positive) was determined using the method as described above. […]
In data set [4] the test system is B-LCL expressing WT1 (B-LCL-WT1).
Procedure: 3×10^6 of PBMCs (HLA-A*3303/1101) were cultured in a 24-well cell culture plate in complete medium (450 RPMI, 45% AMI-V medium and 10% human AB serum) containing 20 μg/ml of WT1337, WT1364, WT1367 or WT1409 at 37° C. with 5% CO2 for 1 week to obtain responding cells. 2×10^6 of the resulting responding cells were cocultured with 1×10^6 of the B-LCL cells pulsed with the same WT1 peptide in complete medium for 1 week (first stimulation). […]
as §2
The cytotoxic activity of CTLs induced with WT1367 against B-LCL cell expressing WT1 was determined using the method as described above. […]
Data set [5] concerns human peripheral blood mononuclear cells having HLA-A*0201. Conditions: human PBMCs having HLA-A*0201 stimulated with peptide; Non-patent Document 11; cited from earlier work.

Ends that are not written are not given here.

We go through six sequences from patent US8933038B2, “Method of treating cancer with an HLA-A*3303-restricted WT1 peptide and pharmaceutical composition comprising the same” (International Institute of Cancer Immunology, Inc., priority 2006, dated 2015).

Take “CMTWNQMNL (listed as Homo sapiens) [WT1235]”: in data set [1], the “induction of WT1-specific CTLs” value was “WT1-specific CTLs (TAK-1) are induced”.

Turning to FSRSDQLKR [WT1364], the “cytotoxic activity (specific lysis) of CTLs induced with the peptide” value (“cytotoxic activity (specific lysis)” below) in data set [2] is on record as “damage specifically BLCL-Ps”; in data set [3], “have a cytotoxic activity against the cell expressing a WT1 gene exogenously”.

Turning to LSHLQMHSR [WT1337], the “cytotoxic activity (specific lysis)” value in data set [2] is “damage specifically BLCL-Ps”.

For the sequence SDQLKRHQR [WT1367], the “cytotoxic activity (specific lysis)” value in data set [2] is “damage specifically BLCL-Ps”; in data set [3] it was “have a cytotoxic activity against the cell expressing a WT1 gene exogenously”; in data set [4], “damage only the cell which is HLA-A*3303-positive and expresses WT1”.

On to “SLGEQQYSV (listed as Homo sapiens) [WH187 peptide]”, for which, in data set [5], the “induction of WT1-specific CTLs” value is “WT1-specific CTLs are induced”.

Take TSEKPFSCR [WT1409]: the “cytotoxic activity (specific lysis)” value is recorded as “damage specifically BLCL-Ps” in data set [2] and “have a cytotoxic activity against the cell expressing a WT1 gene exogenously” in data set [3].
